{
  "source": "patent US9169279B2",
  "about": "“Crystallization method and bioavailability” (THAR PHARMACEUTICALS, INC., priority 2009, dated 2015)",
  "key": {"[1]": {"conditions": "room temperature"}, "[2]": {"assay": "Dog PK study: zoledronic acid in serum after IV or oral capsule dosing, enteric or non-enteric coated, with or without excess coformer (LC/MS/MS)", "assay_type": "in vivo, Beagle dogs", "conditions": "beagle, po, 56 mg, Leg 7, 56.0 mg, enteric coated capsule, PO, read-out: Average serum concentration of 5 dogs", "source_text": "This can be attributed to the fact that both animals have historically been used in the safety evaluation and PK screening studies and are recommended by appropriate regulatory agencies. […] Additional tests included ID administration in rats and administration of enteric coated capsules in dogs.\nUSA. Some animals have surgical catheters (jugular vein and intraduodenum) were implanted to the animals prior to the studies. Beagle dogs from Marshall Farms, N.Y., USA, weighing from (9-12 kg) were used in the studies presented herein. Surgical catheters (jugular vein) were implanted prior to the studies.\nThe dose volume of each dog was adjusted based upon the average weight of the dog. • ii. […]\nBlood samples were placed without the use of an anticoagulant and allowed to sit at room temperature for approximately 30 minutes. Samples were then centrifuged at a temperature of 4° C., at a speed of 13,000 rpm, for 5 minutes. Serum was collected and split into two aliquots and stored frozen (−80° C.) until analysis.\nIn this study, capsules of particulate materials (zoledronic:DL-lysine:water complex and excess pure DL-lysine)."}},
  "data": [
    {"molecule": "O.O=P(O)(O)C(O)(Cn1ccnc1)P(=O)(O)O", "note": "[ZA monohydrate]", "values": [
      {"measurement": "Aqueous solubility, Conc. mg/mL", "setting": "[1]", "value": 1.57, "unit": "mg/mL"}
    ]},
    {"molecule": "NCCCC[C@H](N)C(=O)O.O.O.O=P(O)(O)C(O)(Cn1ccnc1)P(=O)(O)O", "note": "[ZA: L-Lysine dihydrate]", "values": [
      {"measurement": "Aqueous solubility, Conc. mg/mL", "setting": "[1]", "value": 8.22, "unit": "mg/mL"}
    ]},
    {"molecule": "NCCCCC(N)C(=O)O.O.O.O=P(O)(O)C(O)(Cn1ccnc1)P(=O)(O)O", "note": "[ZA: DL-Lysine dihydrate]", "values": [
      {"measurement": "Aqueous solubility, Conc. mg/mL", "setting": "[1]", "value": 6.85, "unit": "mg/mL"}
    ]},
    {"molecule": "O=P(O)(O)C(O)(Cn1ccnc1)P(=O)(O)O", "note": "[Zoledronic acid monohydrate]", "values": [
      {"measurement": "concentration at 0 h", "setting": "[2]; 0 h", "value": 0, "unit": "ng/mL"},
      {"measurement": "concentration at 10 min", "setting": "[2]; 10 min", "value": 0, "unit": "ng/mL"},
      {"measurement": "concentration at 0.25 h", "setting": "[2]; 0.25 h", "value": 0, "unit": "ng/mL"},
      {"measurement": "concentration at 0.5 h", "setting": "[2]; 0.5 h", "value": 0, "unit": "ng/mL"},
      {"measurement": "concentration at 0.75 h", "setting": "[2]; 0.75 h", "value": 0, "unit": "ng/mL"},
      {"measurement": "concentration at 1 h", "setting": "[2]; 1 h", "value": 9.84, "unit": "ng/mL"},
      {"measurement": "concentration at 1.5 h", "setting": "[2]; 1.5 h", "value": 86.1, "unit": "ng/mL"},
      {"measurement": "concentration at 2 h", "setting": "[2]; 2 h", "value": 109, "unit": "ng/mL"},
      {"measurement": "concentration at 4 h", "setting": "[2]; 4 h", "value": 108, "unit": "ng/mL"},
      {"measurement": "concentration at 6 h", "setting": "[2]; 6 h", "value": 14.2, "unit": "ng/mL"},
      {"measurement": "concentration at 8 h", "setting": "[2]; 8 h", "value": 4.57, "unit": "ng/mL"},
      {"measurement": "concentration at 24 h", "setting": "[2]; 24 h", "value": 0.5, "unit": "ng/mL"}
    ]},
    {"molecule": "NCCCCC(N)C(=O)O.O.O=P(O)(O)C(O)(Cn1ccnc1)P(=O)(O)O", "note": "[ZA: DL-Lysine monohydrate]", "values": [
      {"measurement": "Aqueous solubility, Conc. mg/mL", "setting": "[1]", "value": 13.9, "unit": "mg/mL"}
    ]}
  ]
}
